{"source": "ChEMBL document CHEMBL5385919", "about": "“A Survey of Recently Discovered Naturally Occurring Organohalogen Compounds” (J Nat Prod, 2024)", "key": {"Nannizzia gypsea": {"test_system": "Nannizzia gypsea", "assay": "Antifungal activity against Microsporum gypseum assessed as reduction in fungal growth", "format": "functional"}, "Staphylococcus aureus [1]": {"test_system": "Staphylococcus aureus", "assay": "Antibacterial activity against Staphylococcus aureus assessed as reduction in bacterial growth", "format": "functional"}, "HepG2": {"test_system": "HepG2", "assay": "Cytotoxicity against human HepG2 cells assessed as inhibition of cell growth", "format": "functional, cell-based"}, "Staphylococcus aureus [2]": {"test_system": "Staphylococcus aureus", "assay": "Antibacterial activity against methicillin resistant Staphylococcus aureus assessed as reduction in bacterial growth", "format": "functional, organism-based"}, "[3]": {"assay": "Antioxidant activity assessed as DPPH radical scavenging activity", "format": "functional"}, "Vibrio harveyi [4]": {"test_system": "Vibrio harveyi", "assay": "Antimicrobial activity against Vibrio harveyi assessed as bacterial growth inhibition incubated for 12 hrs by serial dilution analysis", "format": "functional"}, "Candida albicans": {"test_system": "Candida albicans", "assay": "Antifungal activity against Candida albicans assessed as reduction in […] growth", "format": "functional"}, "[5]": {"test_system": "Mycolicibacterium smegmatis", "assay": "Antibacterial activity against Mycolicibacterium smegmatis assessed as reduction in bacterial growth", "format": "functional"}, "Bacillus mycoides": {"test_system": "Bacillus mycoides", "assay": "Antibacterial activity against Bacillus mycoides assessed as reduction in bacterial growth", "format": "functional"}, "MDA-MB-231": {"test_system": "MDA-MB-231", "assay": "Growth inhibition of human MDA-MB-231 cells assessed inhibition of cell growth", "format": "functional"}, "Escherichia coli": {"test_system": "Escherichia coli", "assay": "Antibacterial activity against Escherichia coli assessed as reduction in bacterial growth", "format": "functional"}, "Bacillus subtilis": {"test_system": "Bacillus subtilis", "assay": "Antibacterial activity against Bacillus subtilis assessed as reduction in bacterial growth", "format": "functional"}, "[6]": {"assay": "Inhibition of neuronal excitability in mouse Primary neocortical neuron assessed as reduction in 4-AP-induced SCO amplitude measured for 1 hr by FLIPR assay", "format": "functional, cell-based"}, "[7]": {"assay": "Inhibition of neuronal excitability in mouse Primary neocortical neuron assessed as reduction in 4-AP-induced SCO frequency measured for 1 hr by FLIPR assay", "format": "functional, cell-based"}, "Bacillus cereus": {"test_system": "Bacillus cereus", "assay": "Antibacterial activity against Bacillus cereus assessed as reduction in bacterial growth", "format": "functional"}, "ACHN": {"test_system": "ACHN", "assay": "Growth inhibition of human ACHN cells assessed as cell viability incubated for 48 hrs by SRB assay", "format": "functional", "conditions": "pooled result: one value given for 6 cell lines, strains, targets or settings"}, "Micrococcus luteus": {"test_system": "Micrococcus luteus", "assay": "Antimicrobial activity against Micrococcus luteus assessed as bacterial growth inhibition", "format": "functional"}, "Vibrio harveyi [8]": {"test_system": "Vibrio harveyi", "assay": "Antimicrobial activity against Vibrio harveyi assessed as bacterial growth inhibition", "format": "functional"}, "Prorocentrum minimum": {"test_system": "Prorocentrum minimum", "assay": "Antimicrobial activity against Prorocentrum minimum assessed as […] growth inhibition", "format": "functional"}, "RAW264.7": {"test_system": "RAW264.7", "assay": "Antiinflammatory activity in mouse RAW264.7 cells assessed as inhibition of LPS-induced NO production pretreated with compound for 1 hr followed by LPS-induction and measured after 48 hrs by microplate reader analysis", "format": "functional, cell-based"}, "[9]": {"molecular_target": "E3 ubiquitin-protein ligase CBL-B (Homo sapiens, UniProt Q13191)", "sequence (Q13191 whole entry)": "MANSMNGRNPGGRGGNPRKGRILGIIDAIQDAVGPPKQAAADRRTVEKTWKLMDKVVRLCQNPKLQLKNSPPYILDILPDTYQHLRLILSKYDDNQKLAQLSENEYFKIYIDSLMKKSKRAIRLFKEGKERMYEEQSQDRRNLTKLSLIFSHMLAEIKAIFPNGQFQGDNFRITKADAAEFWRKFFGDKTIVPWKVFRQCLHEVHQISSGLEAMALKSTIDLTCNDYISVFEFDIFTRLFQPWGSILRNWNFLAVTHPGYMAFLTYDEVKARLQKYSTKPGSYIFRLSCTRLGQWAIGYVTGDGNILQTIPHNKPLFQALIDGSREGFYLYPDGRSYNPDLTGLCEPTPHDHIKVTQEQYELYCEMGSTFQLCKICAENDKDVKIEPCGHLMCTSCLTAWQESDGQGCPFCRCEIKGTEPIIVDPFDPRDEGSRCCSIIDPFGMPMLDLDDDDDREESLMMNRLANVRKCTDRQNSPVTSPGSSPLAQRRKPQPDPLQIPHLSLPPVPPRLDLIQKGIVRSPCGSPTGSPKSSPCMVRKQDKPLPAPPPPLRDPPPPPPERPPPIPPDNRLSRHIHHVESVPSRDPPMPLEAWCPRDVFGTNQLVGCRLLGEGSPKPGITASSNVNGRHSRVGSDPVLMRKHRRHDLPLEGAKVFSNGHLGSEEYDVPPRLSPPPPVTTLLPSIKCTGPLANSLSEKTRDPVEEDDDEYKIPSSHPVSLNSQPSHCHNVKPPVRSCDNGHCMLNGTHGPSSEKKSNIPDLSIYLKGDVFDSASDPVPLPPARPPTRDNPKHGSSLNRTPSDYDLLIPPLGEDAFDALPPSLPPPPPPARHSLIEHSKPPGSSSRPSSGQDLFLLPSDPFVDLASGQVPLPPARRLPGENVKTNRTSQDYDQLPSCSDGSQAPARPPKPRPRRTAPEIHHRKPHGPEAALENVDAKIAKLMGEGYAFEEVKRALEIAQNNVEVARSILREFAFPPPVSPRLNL", "assay": "Inhibition of recombinant Cbl-b (unknown origin) in presence of ATP incubated for 60 mins by ELISA analysis"}, "KB": {"test_system": "KB", "assay": "Cytotoxicity against human KB cells assessed as inhibition of cell growth incubated for 48 hrs by MTT assay", "format": "functional, cell-based"}, "HL-60": {"test_system": "HL-60", "assay": "Cytotoxicity against human HL-60 cells assessed as inhibition of cell growth incubated for 48 hrs by MTT assay", "format": "functional, cell-based", "conditions": "HL-60, 48 h"}, "MGC-803": {"test_system": "MGC-803", "assay": "Cytotoxicity against human MGC-803 cells assessed as inhibition of cell growth incubated for 48 hrs by MTT assay", "format": "functional, cell-based", "conditions": "MGC-803, 48 h"}, "MCF7": {"test_system": "MCF7", "assay": "Cytotoxicity against human MCF7 cells assessed as inhibition of cell growth incubated for 48 hrs by MTT assay", "format": "functional, cell-based", "conditions": "MCF7, 48 h"}, "Plasmodium falciparum": {"test_system": "Plasmodium falciparum", "assay": "Antiplasmodial activity against Plasmodium falciparum K1 assessed as reduction in parasite growth", "format": "functional, organism-based"}}, "note": "pEC50, pIC50: −log10 of the molar value."}
{"molecule": "C=C(CCC=C(C)C)[C@]1(O)CC[C@@](C)(Cl)[C@H](Br)C1", "values": [{"measurement": "MIC", "setting": "Nannizzia gypsea", "value": 8, "unit": "µg/mL"}, {"measurement": "MIC", "setting": "Staphylococcus aureus [1]", "value": 15.4, "unit": "µg/mL"}]}
{"molecule": "CC(C)c1cc(=O)c2c(cc(O)c3c(=O)c4c(O)c(Br)ccc4c(=O)c32)c1=O", "values": [{"measurement": "pIC50", "setting": "HepG2", "value": 5.03}, {"measurement": "IC50", "setting": "Staphylococcus aureus [2]", "value": 0.098, "unit": "µg/mL"}]}
{"molecule": "O=Cc1cc(Br)c(O)c(O)c1Cc1ccc(O)c(Br)c1", "values": [{"measurement": "pIC50", "setting": "[3]", "value": 5.46}]}
{"molecule": "O=C(N[C@H](CO)[C@H](O)c1ccc([N+](=O)[O-])cc1)C(Cl)Cl", "note": "[CHLORAMPHENICOL]", "values": [{"measurement": "MIC", "setting": "Vibrio harveyi [4]", "value": 2, "unit": "µg/mL"}]}
{"molecule": "Cc1cc(O)c2c3c(c(O)cc(OC[C@@H](O)C(C)(C)Cl)c13)C(=O)C2=O", "values": [{"measurement": "MIC", "setting": "Staphylococcus aureus [2]", "value": 12.5, "unit": "µM"}]}
{"molecule": "COc1ccc2[nH]c3c(O)cccc3c2c1Cl", "values": [{"measurement": "MIC", "setting": "Candida albicans", "value": 32, "unit": "µg/mL"}, {"measurement": "MIC", "setting": "Staphylococcus aureus [2]", "value": 32, "unit": "µg/mL"}, {"measurement": "MIC", "setting": "[5]", "value": 32, "unit": "µg/mL"}, {"measurement": "MIC", "setting": "Bacillus mycoides", "value": 32, "unit": "µg/mL"}]}
{"molecule": "CCCC[C@H]1CCC[C@@H](Cl)CCc2cc(O)c(c(O)c2)[C@@H](CCCC)CCC[C@@H](Cl)C[C@@H](OC)c2cc(O)c1c(O)c2", "values": [{"measurement": "GI50", "setting": "MDA-MB-231", "value": 0.72, "unit": "µM"}]}
{"molecule": "C[C@]12NC(=N)N[C@@]1(O)c1nc(-c3c[nH]c4ccccc34)cnc1-c1c2[nH]c2cc(Br)ccc12", "values": [{"measurement": "MIC", "setting": "Escherichia coli", "value": 37.5, "unit": "µM"}, {"measurement": "MIC", "setting": "Bacillus subtilis", "value": 18.5, "unit": "µM"}]}
{"molecule": "C=C(C)[C@@H](O)CC/C(C)=C1\\CC[C@](C)(Cl)[C@@H](Br)C1", "values": [{"measurement": "MIC", "setting": "Nannizzia gypsea", "value": 4, "unit": "µg/mL"}, {"measurement": "MIC", "setting": "Staphylococcus aureus [1]", "value": 26.8, "unit": "µg/mL"}]}
{"molecule": "CC(C)(O)C(=O)OC[C@](C)(O)[C@H]1OC2=CC[C@@]3(C)[C@@](O)(CC[C@H]4Cc5c([nH]c6cc(Cl)ccc56)[C@@]43C)C2=CC1=O", "values": [{"measurement": "pEC50", "setting": "[6]", "value": 5.25}, {"measurement": "pEC50", "setting": "[7]", "value": 5.32}]}
{"molecule": "CC[C@H](C)[C@H]1O[C@H](CC(C)=O)O[C@@]1(C)/C=C/C1=CC2=C(Cl)C(=O)[C@](C)(O)[C@H](OC(C)=O)[C@H]2CO1", "values": [{"measurement": "MIC", "setting": "Staphylococcus aureus [2]", "value": 25, "unit": "µg/mL"}]}
{"molecule": "COc1c(Br)cc(C/C(=N/O)C(=O)NC[C@@H](O)COc2c(Br)cc([C@H]3CNC(=O)O3)cc2Br)c(O)c1Br", "values": [{"measurement": "MIC", "setting": "Staphylococcus aureus [1]", "value": 5.2, "unit": "µM"}]}
{"molecule": "CCCC[C@@H](Cl)CCC[C@@H](Cl)C[C@@H](OC)c1cc(O)c([C@@H](CCCC)CCC[C@@H](Cl)C[C@@H](OC)c2cc(O)cc(O)c2)c(O)c1", "values": [{"measurement": "GI50", "setting": "MDA-MB-231", "value": 0.72, "unit": "µM"}]}
{"molecule": "C/C=C(\\C)c1c(Cl)c(O)c(C)c2c1Oc1c(C)c(O)c(Cl)c(/C(C)=C/C)c1C(=O)O2", "values": [{"measurement": "MIC", "setting": "Bacillus cereus", "value": 1.56, "unit": "µg/mL"}, {"measurement": "MIC", "setting": "Staphylococcus aureus [1]", "value": 1.56, "unit": "µg/mL"}]}
{"molecule": "CC(C)Cc1c(O)cc2oc3cc(Cl)cn3c(=O)c2c1O", "values": [{"measurement": "GI50", "setting": "ACHN", "value": 4.9, "unit": "µM"}, {"measurement": "MIC", "setting": "Bacillus subtilis", "value": 0.7, "unit": "µM"}, {"measurement": "MIC", "setting": "Micrococcus luteus", "value": 0.7, "unit": "µM"}, {"measurement": "MIC", "setting": "Staphylococcus aureus [1]", "value": 0.7, "unit": "µM"}]}
{"molecule": "CCCC[C@H]1CCC[C@@H](Cl)C[C@@H](OC)c2cc(O)c(c(O)c2)[C@@H](CC)CCC[C@@H](Cl)C[C@@H](OC)c2cc(O)c1c(O)c2", "values": [{"measurement": "GI50", "setting": "MDA-MB-231", "value": 0.72, "unit": "µM"}]}
{"molecule": "COC(=O)/C=C/C(=O)N[C@H](Cc1ccc(O)c(Cl)c1)C(=O)OC", "values": [{"measurement": "MIC", "setting": "Vibrio harveyi [8]", "value": 16, "unit": "µg/mL"}]}
{"molecule": "COc1cc(OC)c2c(O)c3c(=O)cc(C)oc3c(-c3c(OC)cc4c(I)c(O)c5c(=O)cc(C)oc5c4c3OC)c2c1", "values": [{"measurement": "MIC", "setting": "Prorocentrum minimum", "value": 0.61, "unit": "µg/mL"}, {"measurement": "MIC", "setting": "Vibrio harveyi [4]", "value": 8, "unit": "µg/mL"}]}
{"molecule": "C#C/C=C\\CC(Br)[C@@H]1C[C@@H](OC(C)=O)[C@H](CCCCCC)O1", "note": "(some centres not stated)", "values": [{"measurement": "pIC50", "setting": "RAW264.7", "value": 5.43}]}
{"molecule": "CCCCC[C@H]1CCC[C@@H](Cl)C[C@@H](OC)c2cc(O)c(c(O[C@@H]3OC[C@@H](O)[C@H](O)[C@H]3O)c2)[C@@H](CCCC)CCC[C@@H](Cl)C[C@@H](OC)c2cc(O)c1c(O)c2", "values": [{"measurement": "GI50", "setting": "MDA-MB-231", "value": 0.72, "unit": "µM"}]}
{"molecule": "Cn1cc(Br)cc1C(=O)NC[C@@H]1[C@@H](CNC(=O)c2ccc(Br)[nH]2)Cc2nc(N)[nH]c2[C@H]1c1c[nH]c(N)n1", "values": [{"measurement": "pIC50", "setting": "[9]", "value": 4.48}]}
{"molecule": "COc1c(Cl)ccc2c(=O)c3c(O)c4c5c(c3oc12)OCO[C@@H]5Cc1c-4c(O)c2c(=O)[nH]c(C)c(Cl)c2c1O", "values": [{"measurement": "IC50", "setting": "KB", "value": 0.008, "unit": "µg/mL"}, {"measurement": "IC50", "setting": "HL-60", "value": 0.008, "unit": "µg/mL"}, {"measurement": "IC50", "setting": "MGC-803", "value": 0.008, "unit": "µg/mL"}, {"measurement": "IC50", "setting": "MCF7", "value": 0.008, "unit": "µg/mL"}]}
{"molecule": "C=C1C[C@H](O)[C@H](Br)C(C)(C)[C@]12CC=C(COC)CC2", "values": [{"measurement": "pIC50", "setting": "HepG2", "value": 5.39}]}
{"molecule": "Cc1cc(O)cc2c1[C@@H]1O[C@@](C)(Cc3cc4c(c(O)c31)C(=O)c1c(O)cc(O)c(Cl)c1C4(C)C)O2", "values": [{"measurement": "pIC50", "setting": "Plasmodium falciparum", "value": 5.35}, {"measurement": "MIC", "setting": "Bacillus subtilis", "value": 0.4, "unit": "µg/mL"}, {"measurement": "MIC", "setting": "Staphylococcus aureus [1]", "value": 0.8, "unit": "µg/mL"}]}
